Where two headings read alike, the source gives them in different places.
Legend:
c-Cbl [1] = type: cell-based, rat
Description: (§1) For the co-immunoprecipitation assay, anti-c-Cbl monoclonal antibody (BD PharMingen) or anti-PDGFRα polyclonal antibody (Santa Cruz Biotechnology) was added to the pre-cleared cell lysates (250 μg of total protein), and the mixtures were gently rocked for 2 h at 4° C. A total of 30 μl of protein A/G agarose was then added to the mixture followed by rotating at 4° C. overnight. The protein A/G agarose was then spun down and washed thoroughly three times. The precipitates were resolved on an 8% SDS-PAGE gel and then were subjected to Western blot analysis using an anti-p-Tyr (for c-Cbl phosphorylation assay) or ubiquitin (for PDGFR ubiquitylation assay) antibody (Santa Cruz Biotechnology).

c-Met = type: cell-based, rat
From the text: (§2) Anti-phosphorylated Erk monoclonal, anti-Erk monoclonal, anti-TrkC polyclonal anti-Fyn polyclonal, anti-EGFR polyclonal, anti-c-Met polyclonal, anti-phospho-tyrosine monoclonal, and anti-PDGFRα polyclonal antibodies were obtained from Santa Cruz Biotechnology (Santa Cruz, Calif., United States). Anti-c-Cbl monoclonal antibody was obtained from BD PharMingen (San Diego, Calif., United States). Anti-phosphorylated Akt monoclonal and anti-Akt polyclonal antibodies were obtained from Cell Signaling Technology (Beverly, Mass., United States). Anti-phosphorylated PDGPRα polyclonal antibody was obtained from Biosource (Carlsbad, Calif., United States). The cell culture samples were collected and lysed in RAPI buffer, whereas dissected tissue samples were sonicated in RAPI buffer. Samples were resolved on SDS-PAGE gels and transferred to PVDF membranes (PerkinElmer Life Science. Wellesley, Mass., United States), After being blocked in 5% skim milk in PBS containing 0.1% Tween 20, membranes were incubated with a primary antibody, followed by incubation with an HRP-conjugated secondary antibody (Santa Cruz Biotechnology). Membranes were visualized using Western Blotting Luminol Reagent (Santa Cruz Biotechnology). All analyses of signaling pathway components were conducted in the presence of ligand for the receptor pathway under analysis (either PDGF-AA for PDGFRα, NT-3 or TrkC, HGF for c-Met, or EGF for EGFR).

EGFR = type: cell-based, rat
From the text: as §2

TrkC = type: cell-based, rat
From the text: as §2

PDGFRα [2] = assay: PDGFRα phosphorylation (Western blot, anti-PDGFRα(pY742)); type: cell-based, rat
From the text: The cells were then collected and lysed for Western blotting. […] Cells were lysed for Western blot analysis using anti-PDGFRα(pY742) antibody. The membranes were de-probed and then re-probed with antibody against total PDGFRα and anti-β-tubulin antibody. […]
as §2

O-2A/OPCs [3] = assay: In vitro BrdU incorporation assay; type: cell-based, rat; details: TMX 10 nM, 100 nM and 1 μM, 2 days
Description: Cell proliferation was assessed by bromodeoxyuridine (BrdU) incorporation and by using the mouse anti-BrdU mAb IgGl (1:100; Sigma) to label dividing cells. Stained cells on cover slips were rinsed two times in 1×PBS, counterstained with 4′6-diamidino-2-phenylindole (DAPI; Molecular Probes, Eugene, Oreg., United States) and mounted on glass slides with Fluoromount (Molecular Probes). Staining against surface proteins was performed on cultures of living cells or on cells fixed with 2% paraformaldehyde. Staining with intracellular antibodies was performed by permeabilizing cells with ice-cold methanol for 4 min or by using 0.5% Triton for 15 mm on 2% parafomaldhyde-fixed cells. Antibody binding was detected with appropriate fluorescent dye-conjugated secondary antibodies at 10 μg/ml (Southern Biotech, Birmingham, Ala., United States) or Alexa Fluor-coupled antibodies at a concentration of 1 μg/ml (Molecular Probes), applied for 20 min. Anti-BrdU monoclonal antibody was obtained from Sigma.

MDA-MB-231 cell = MDA-MB-231 cell division by BrdU incorporation; type: cell-based; details: 20 μM tamoxifen, 48 hours
Description: It has been reported that c-Cbl induced down-regulation of EGFR is disabled in cancer cells (Hirsch DS, Shen. Y, Wu WJ, (2006) Cancer Res. Apr 1;66(7):3523-30). Thus, growth and motility inhibition of breast cancer cells by EGFR degradation is correlated with inaetivation of Cdc42. […] Cells were cultured in phenol red-free growth media and exposed to TMX (0, 1 μM, 10 μM, 20 μM and 50 μM) for 48 hours, with or without 1 mM NAC. In FIG. 22C. MDA-MB-231 cell division was analyzed by BrdU incorporation analysis. […] Percentage of Brdu+ cells from DAPI+ cells was determined in each sample.

PDGFRα [4] = type: cell-based, rat; details: for levels of PDGFRα: tamoxifen (100 nM; time course 4, 12, 24 hours); for effect on MeHg-induced reductions in levels of PDGFRα: together with MeHg
Erk1/2 = type: cell-based, rat
Description: Cells were deprived of PDGF-AA for 5 h before re-exposure to PDGF-AA (10 ng/ml) for 1 h for Western blot or 6 h for luciferase assays of pathway activation. Transient transfection was performed using Fugene6 (Roche, Basel, Switzerland ) transfection solution according to the manufacturer's protocol. For the luciferase assay, cells seeded in 12-well plates were transfected with a reporter plasmid SRE-Luc(firefly) or NF-κB-Luc(firefly) (BD-Clontech, Palo Alto, Calif., United States) and an internal control plasmid pRLSV40-LUC. Analyses of luciferase activity were performed according to the protocol of the Dual Luciferase Assay System (Promega, Madison, Wis., United States), which uses an internal control of Renilla luciferase for quantification, and relative light units were measured using a luminometer.
as §2

PDGFRα [5] = assay: PDGFR ubiquitylation (immunoprecipitation assay); type: cell-based, rat; details: co-exposure with MeHg
Description: as §1

Fyn [6] = biological target: T1, Fyn (Rattus norvegicus, UniProt Q62844); type: cell-based
T1 construct: 250 μg of total cell lysates were immunoprecipitated with anti-Fyn antibody; endogenous in cells; host or cells: primary rat O-2A/OPCs
Description: Fyn kinase activity was quantified using the Universal Tyrosine Kinase Assay Kit (Takara, Madison, Wis., United States). O-2A/OPCs exposed to different treatments were solubilized with an equal volume of the extraction buffer provided with the kit for 15 min, and the resulting lysates were centrifuged at 13,000×g for 15 min at 4° C.; 250 μg of total cell lysates were immunoprecipitated with anti-Fyn antibody (Santa Cruz Biotechnology). Following immunoprecipitation, Fyn immune complexes were washed four times with extraction buffer, and then Fyn kinase activities of each sample were assayed using the kit according to the manufacturer's instructions.

O-2A/OPCs [7] = assay: Cell death of O-2A/OPCs on exposure; type: cell-based, rat; details: MeHg at lower concentrations (not above 50 nM); 1 μM Pb; 5 μM paraquat
Description: To generate sufficient numbers of cells for biochemical analysis, cells, were expanded through one to two passages in PDGF+FGF-2 before replating in the presence of PDGF alone. When cells achieved approximately 50% confluence, MeHg, Pb, or paraquat was added to their medium at concentrations indicated. Doses for the toxicants were chosen on the basis of dose-response curves to identify sub-lethal exposure levels, as a reflection of blood and brain toxicant levels of these compounds and, where applicable, on the basis of previous reports. All toxicant concentrations examined were confirmed to cause death of less than 5% of cells over the time course of the experiment.

O-2A/OPCs [8] = assay: Intracellular ROS / redox state measurement; type: cell-based, rat; details: 1 μM Pb or 5 μM paraquat; dyes dihydro-chloromethyl-rosamine or dihydro-calcein-AM
Description: Cells were plated in 96-well microplates and grown to about 60% continence. […] Cells were then washed once with HBSS and growth medium to remove free probe. Then, fresh growth medium was added and a baseline fluorescence reading was taken prior to treatment. For NAC pre-treatment. […] Fluorescence was measured in a Wallac 1420 Victor2 multilabel counter (PerkinElmer) using excitation and emission wavelengths of 485 nm and 535 nm, respectively, at different time courses as indicated in the figures. Results are presented as the value change from baseline by the formula (Ftexp−Ftbase)/Ftbase normalized with the control group, where Ftexp=fluorescence at any given time during the experiment in a give well and Ftbase=baseline fluorescence of the same well.

Fyn [9] = assay: Fyn protein level after RNAi (Western blot); type: cell-based, rat; details: expression of RNAi construct
From the text: (§3) Anti-phosphorylated Erk monoclonal, anti-Erk monoclonal, anti-TrkC polyclonal anti-Fyn polyclonal, anti-EGFR polyclonal, anti-c-Met polyclonal, anti-phospho-tyrosine monoclonal, and anti-PDGFRα polyclonal antibodies were obtained from Santa Cruz Biotechnology (Santa Cruz, Calif., United States). Anti-c-Cbl monoclonal antibody was obtained from BD PharMingen (San Diego, Calif., United States). Anti-phosphorylated Akt monoclonal and anti-Akt polyclonal antibodies were obtained from Cell Signaling Technology (Beverly, Mass., United States). Anti-phosphorylated PDGPRα polyclonal antibody was obtained from Biosource (Carlsbad, Calif., United States). The cell culture samples were collected and lysed in RAPI buffer, whereas dissected tissue samples were sonicated in RAPI buffer. […]
(§4) siRNA target sites were selected by scanning the cDNA sequence for AA dinucleotides via siRNA target finder (Ambion, Austin, Tex., United States). Those 19-nucleotide segments that start with G immediately downstream of AA were recorded and then analyzed by BLAST search to eliminate any sequences with significant similarity to other genes. […]

c-Cbl [10] = assay: c-Cbl protein level after RNAi (Western blot); type: cell-based, rat; details: expression of RNAi construct
From the text: as §3, §4

[11] = 30 nM MeHg, 1 μM Pb, 5 μM paraquat

T1 sequence (Q62844 whole entry): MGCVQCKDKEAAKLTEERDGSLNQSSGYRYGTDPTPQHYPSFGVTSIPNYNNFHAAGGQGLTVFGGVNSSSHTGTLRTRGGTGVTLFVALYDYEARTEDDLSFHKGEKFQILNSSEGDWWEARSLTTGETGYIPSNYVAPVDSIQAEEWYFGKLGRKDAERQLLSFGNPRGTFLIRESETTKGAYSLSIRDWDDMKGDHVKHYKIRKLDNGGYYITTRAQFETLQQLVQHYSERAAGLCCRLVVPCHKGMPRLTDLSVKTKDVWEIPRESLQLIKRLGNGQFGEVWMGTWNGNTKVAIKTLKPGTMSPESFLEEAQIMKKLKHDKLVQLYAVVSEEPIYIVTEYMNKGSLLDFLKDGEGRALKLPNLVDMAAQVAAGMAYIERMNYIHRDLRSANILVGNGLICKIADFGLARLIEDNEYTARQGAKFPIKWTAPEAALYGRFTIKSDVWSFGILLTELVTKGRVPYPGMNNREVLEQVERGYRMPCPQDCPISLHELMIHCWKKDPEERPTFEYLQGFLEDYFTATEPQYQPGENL

CC/C(=C(\c1ccccc1)c1ccc(OCCN(C)C)cc1)c1ccccc1 [tamoxifen]
c-Cbl activation (c-Cbl [1]; 100 nM tamoxifen): activates
levels of c-Met (c-Met; TMX exposure): decreased
levels of EGFR (EGFR; TMX exposure): decreased
levels of Trk (non-c-Cbl target) (TrkC; TMX treatment): no differences
levels of phosphorylated PDGFRα (PDGFRα [2]; TMX exposure 4, 12, 24 hours): parallel reduction over time
O-2A/OPC division (O-2A/OPCs [3]): Suppression
reduction in cell division (MDA-MB-231 cell): ~10%
levels of PDGFRα (PDGFRα [4]): causes reductions
levels of PDGFRα (PDGFRα [4]; listed as TMX): parallel reduction over time

Cl.N [NH4Cl, ammonium chloride]
effect on Aβ(1-42) suppression of PDGF-mediated Erk1/2 phosphorylation (Erk1/2; co-exposure with Aβ(1-42)): not
effect on MeHg-associated suppression of Erk1/2 phosphorylation (Erk1/2; co-treatment with MeHg): blocked
levels of ubiquitylated PDGFRα in MeHg-treated cells (PDGFRα [5]): increased levels of ubiquityiated receptor
effect on MeHg-induced c-Cbl phosphorylation (c-Cbl [1]; added 1 h before MeHg): lack of effect
effect on Aβ-induced increase in phosphorylated c-Cbl (c-Cbl [1]; co-exposure with Aβ): not blocked
effect on MeHg-induced suppression of PDGFRα phosphorylation (PDGFRα [2]; co-exposure with MeHg): protected
effect on MeHg-induced Fyn activation (Fyn [6]; added 1 h before MeHg): lack of effect
effect on Aβ-induced reduction in PDGFRα levels (PDGFRα [4]; co-exposure with Aβ): blocked
effect on MeHg-induced reductions in levels of PDGFRα (PDGFRα [4]): blocked

[Pb] [Pb, lead]
PDGF-induced Erk1/2 phosphorylation after toxicant exposure (Erk1/2; 30 nM MeHg 24 h, 1 μM Pb, 5 μM paraquat): reduced levels of Erk1/2 phosphorylation
c-Cbl phosphorylation after toxicant exposure (c-Cbl [1]; [11]): increased phosphorylation of c-Cbl
levels of c-Met after toxicant exposure (c-Met; MeHg, Pb or paraquat): also reduced
levels of EGFR after toxicant exposure (EGFR; MeHg, Pb or paraquat): also reduced
levels of TrkC after toxicant exposure (TrkC; MeHg, Pb or paraquat): neither Pb or paraquat caused a reduction
phosphorylation of PDGFRα after toxicant exposure (PDGFRα [2]; [11]): reduced
Fyn activation after toxicant exposure (Fyn [6]; [11]): activation of Fyn
total levels of PDGFRα after toxicant exposure (PDGFRα [4]; MeHg 30 nM, 1 μM Pb, 5 μM paraquat): reduced
cell death at the concentrations used (O-2A/OPCs [7]): did not cause cell death
cells more oxidized (intracellular redox state) (O-2A/OPCs [8]): approximately 20%

B1: Fyn-Scr-RNAi: scrambled negative control for Fyn RNAi, SEQ ID NO: 5 and 6 (nucleic acid)
chain 1: CCCGGGTTTCAATATATTTCTCAAGAGAAAATATATTGAAACCCGGGTTTTTT
chain 2: AATTAAAAAACCCGGGTTTCAATATATTTTCTCTTGAGAAATATATTGAAACCCGGGGGCC
levels of Fyn protein (Fyn [9]): had no effect
effect on MeHg-induced reductions in levels of PDGFRα (PDGFRα [4]): not

B2: c-Cbl RNAi: c-Cbl siRNA construct, SEQ ID NO: 3 and 4 (nucleic acid)
chain 1: GTGCATCCCATCAGTTCTGTTCAAGAGACAGAACTGATGGGATGCACTTTTTT
chain 2: AATTAAAAAAGTGCATCCCATCAGTTCTGTCTCTTGAACAGAACTGATGGGATGCACGGCC
modifications: expressed or natural sequence
levels of c-Cbl protein (c-Cbl [10]): caused a reduction
effect on MeHg-induced reductions in levels of PDGFRα (PDGFRα [4]): protected
effect on Pb- and paraquat-induced reductions in levels of PDGFRα (PDGFRα [4]; together with Pb (1 μM) or paraquat (5 μM)): prevented
